From paper PMC11198769, “Enhancement of transcription efficiency by TAR-Tat system increases the functional expression of human olfactory receptors” (PLOS ONE, 2024)

Legend:
Test in all cases: Comprehensive analysis (screening) of hORs against n-hexanal
Type in all cases: cell-based
[1] = target: T1, OR2W1 (Homo sapiens, UniProt Q9Y3N9); conditions: OR2W1, 500 μM n-hexanal, n = 1
T1 construct: Lucy tag (N); FLAG (N); Rho tag (N); expressed in transfected cells; host or cells: Flp-In T-REx-293 cells stably expressing RTP1S, Gαolf and Ric8-b
T1 sequence (Q9Y3N9 1-320): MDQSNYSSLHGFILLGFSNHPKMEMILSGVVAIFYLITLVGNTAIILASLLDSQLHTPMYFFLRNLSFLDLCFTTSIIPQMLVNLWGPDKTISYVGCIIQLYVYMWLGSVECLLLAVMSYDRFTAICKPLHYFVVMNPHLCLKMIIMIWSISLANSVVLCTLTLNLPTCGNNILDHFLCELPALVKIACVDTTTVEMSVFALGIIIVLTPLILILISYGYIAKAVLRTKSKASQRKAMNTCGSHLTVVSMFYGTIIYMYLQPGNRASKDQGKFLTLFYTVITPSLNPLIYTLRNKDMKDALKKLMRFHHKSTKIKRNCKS
Protocol: (§1) Transfection was performed as described in the “hOR assay,” but 12.5 ng of 379 hOR plasmids (hOR/pBApo and hOR/pHEK) was transfected with the 12.5 ng pGlosensor^TM-22F cAMP biosensor plasmid (Promega) in 384 plates per well. After loading the GloSensor cAMP substrate and preincubation, the assay buffer was added (30 μL/well). After 10 min of equilibration, luminescence was measured (L0). Then, 50 mM n-hexanal, which was diluted with 10% DMSO/assay buffer, was added (4.7 μL/well). After 9 min, luminescence was measured (L9min). All the L9min values were subtracted by the L0 value (ΔL).

[2] = target: T2, OR4K5 (Homo sapiens, UniProt Q8NGD3); conditions: OR4K5, 500 μM n-hexanal, with the TAR-Tat system (hOR/pHEK), n = 1
T2 construct: Lucy tag (N); FLAG (N); Rho tag (N); expressed in transfected cells; host or cells: Flp-In T-REx-293 cells stably expressing RTP1S, Gαolf and Ric8-b
T2 sequence (Q8NGD3 1-323): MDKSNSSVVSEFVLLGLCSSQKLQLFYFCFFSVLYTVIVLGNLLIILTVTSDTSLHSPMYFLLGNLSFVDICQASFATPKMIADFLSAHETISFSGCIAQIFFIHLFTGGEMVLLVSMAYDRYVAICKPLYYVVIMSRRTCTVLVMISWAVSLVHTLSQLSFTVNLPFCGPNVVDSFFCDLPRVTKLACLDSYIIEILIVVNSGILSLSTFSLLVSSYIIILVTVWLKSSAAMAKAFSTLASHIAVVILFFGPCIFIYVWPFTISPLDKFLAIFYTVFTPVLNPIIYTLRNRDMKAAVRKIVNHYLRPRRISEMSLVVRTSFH
Protocol: as §1

[3] = target: T3, OR2B3 (Homo sapiens, UniProt O76000); conditions: OR2B3, 500 μM n-hexanal, with the TAR-Tat system (hOR/pHEK), n = 1
T3 construct: Lucy tag (N); FLAG (N); Rho tag (N); expressed in transfected cells; host or cells: Flp-In T-REx-293 cells stably expressing RTP1S, Gαolf and Ric8-b
T3 sequence (O76000 1-313): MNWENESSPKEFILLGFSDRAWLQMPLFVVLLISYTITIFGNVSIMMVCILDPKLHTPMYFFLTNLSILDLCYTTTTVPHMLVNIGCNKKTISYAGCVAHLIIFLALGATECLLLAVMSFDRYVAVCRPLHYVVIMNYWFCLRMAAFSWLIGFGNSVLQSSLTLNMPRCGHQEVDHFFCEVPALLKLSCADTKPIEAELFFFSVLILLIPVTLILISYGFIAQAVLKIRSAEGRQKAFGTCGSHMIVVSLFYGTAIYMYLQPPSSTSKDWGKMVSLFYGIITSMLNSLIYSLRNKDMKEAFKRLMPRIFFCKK
Protocol: as §1

[4] = target: T4, OR5M3 (Homo sapiens, UniProt Q8NGP4); conditions: OR5M3, 500 μM n-hexanal, with the TAR-Tat system (hOR/pHEK), n = 1
T4 construct: Lucy tag (N); FLAG (N); Rho tag (N); expressed in transfected cells; host or cells: Flp-In T-REx-293 cells stably expressing RTP1S, Gαolf and Ric8-b
T4 sequence (Q8NGP4 1-307): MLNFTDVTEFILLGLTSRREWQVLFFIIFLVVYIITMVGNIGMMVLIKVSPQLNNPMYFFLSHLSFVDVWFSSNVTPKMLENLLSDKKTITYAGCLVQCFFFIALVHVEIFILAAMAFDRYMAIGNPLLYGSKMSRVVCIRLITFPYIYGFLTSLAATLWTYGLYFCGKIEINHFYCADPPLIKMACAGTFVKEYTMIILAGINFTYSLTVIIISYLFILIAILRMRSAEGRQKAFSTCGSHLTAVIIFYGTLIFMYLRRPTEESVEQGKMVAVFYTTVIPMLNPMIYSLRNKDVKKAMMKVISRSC
Protocol: as §1

[5] = target: T5, OR1A1 (Homo sapiens, UniProt Q9P1Q5); conditions: OR1A1, 500 μM n-hexanal, n = 1
T5 construct: Lucy tag (N); FLAG (N); Rho tag (N); expressed in transfected cells; host or cells: Flp-In T-REx-293 cells stably expressing RTP1S, Gαolf and Ric8-b
T5 sequence (Q9P1Q5 1-309): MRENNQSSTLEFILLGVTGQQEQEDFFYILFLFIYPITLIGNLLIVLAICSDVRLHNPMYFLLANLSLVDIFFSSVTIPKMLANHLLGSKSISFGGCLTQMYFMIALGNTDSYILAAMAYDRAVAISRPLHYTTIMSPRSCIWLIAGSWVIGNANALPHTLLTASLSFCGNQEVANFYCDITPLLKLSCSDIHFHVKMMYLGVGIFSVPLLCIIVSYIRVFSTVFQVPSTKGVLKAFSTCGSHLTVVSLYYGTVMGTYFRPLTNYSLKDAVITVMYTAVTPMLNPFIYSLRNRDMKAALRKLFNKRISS
Protocol: as §1

[6] = target: T6, OR56B1 (Homo sapiens, UniProt Q8NGI3); conditions: OR56B1, 500 μM n-hexanal, with the TAR-Tat system (hOR/pHEK), n = 1
T6 construct: Lucy tag (N); expressed in transfected cells; host or cells: Flp-In T-REx-293 cells stably expressing RTP1S, Gαolf and Ric8-b
T6 sequence (Q8NGI3 1-324): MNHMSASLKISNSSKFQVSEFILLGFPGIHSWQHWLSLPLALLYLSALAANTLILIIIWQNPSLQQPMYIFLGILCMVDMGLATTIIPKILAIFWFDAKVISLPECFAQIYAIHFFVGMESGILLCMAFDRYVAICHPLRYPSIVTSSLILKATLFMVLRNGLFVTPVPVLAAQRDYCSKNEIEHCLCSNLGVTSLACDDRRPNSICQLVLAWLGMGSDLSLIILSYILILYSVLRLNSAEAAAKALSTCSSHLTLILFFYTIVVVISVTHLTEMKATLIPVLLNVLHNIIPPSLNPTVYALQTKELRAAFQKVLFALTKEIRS
Protocol: as §1

[7] = with the TAR-Tat system (hOR/pHEK)
[8] = without the TAR-Tat system (control plasmid)

- response value (ΔL) [1, 7]: 9310
- response value (ΔL) [1, 8]: 3463
- response value (ΔL) [2]: > 500
- response value (ΔL) [3]: > 500
- response value (ΔL) [4]: > 500
- response value (ΔL) [5, 7]: 6675
- response value (ΔL) [5, 8]: 974
- response value (ΔL) [6]: > 500
SMILES: CCCCCC=O [n-hexanal]
